In patent US20160002247A1, “8-SUBSTITUTED IMIDAZOPYRIMIDINONE DERIVATIVE HAVING AUTOTAXIN INHIBITORY ACTIVITY” (THE UNIVERSITY OF TOKYO, priority 2013, published 2016):

Biological target: T1, Human autotaxin enzyme (Homo sapiens, UniProt Q13822)
T1 construct: purchased R&D System
Assay: Evaluation of autotaxin inhibitor, Method C (Test Example 3): 18:0 Lyso PC, choline assay, Resorufin fluorescence
Type: biochemical
Conditions: Assay Method C (Test Example 3), human autotaxin, 18:0 Lyso PC substrate; read-out: Inhibitory Activity (autotaxin enzyme inhibitory activity, IC50 class)
Summary of the method: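 Choline-coupled fluorescence readout (20 min, resorufin at 531/598 nm) followed a 2 h room-temperature reaction of human autotaxin with 18:0 Lyso PC substrate (added as 200 μM solution) in pH 7.5 Tris buffer containing MgCl2 and Triton X-100. Percent inhibition scaled to no-compound (0%) and no-enzyme (100%) wells and plotted versus concentration.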

Row | Compound | IC50 [nM]
1 | CCCCCn1c(N2C[C@H](F)C[C@H]2C(=O)NC(C)(C)CC(=O)O)cc(=O)n2cc(-c3ccc(Cl)cc3)nc12 [Compound 583] | < 10
2 | CCCCCn1c(N2C[C@@H](F)C[C@H]2C(=O)NC(C)(C)CC(=O)O)cc(=O)n2cc(-c3ccc(Cl)cc3)nc12 [Compound 584] | < 10
3 | CCCCCn1c(N2C[C@H](O)C[C@H]2C(=O)NC(C)(C)CC(=O)O)cc(=O)n2cc(-c3ccc(Cl)cc3)nc12 [Compound 585] | < 10
4 | CCCCCn1c(N2C[C@@H](O)C[C@H]2C(=O)NC(C)(C)CC(=O)O)cc(=O)n2cc(-c3ccc(Cl)cc3)nc12 [Compound 586] | < 10
5 | CCCCCn1c(N2C[C@H](F)C[C@H]2C(=O)O)cc(=O)n2cc(-c3ccc(Cl)cc3)nc12 [Compound 587] | > 1000
6 | CCCCCn1c(N2C[C@@H](F)C[C@H]2C(=O)O)cc(=O)n2cc(-c3ccc(Cl)cc3)nc12 [Compound 588] | 100 to 1000
7 | CCCCCn1c(N2C[C@H](O)C[C@H]2C(=O)O)cc(=O)n2cc(-c3ccc(Cl)cc3)nc12 [Compound 589] | > 1000
8 | CCCCCn1c(N2C[C@@H](O)C[C@H]2C(=O)O)cc(=O)n2cc(-c3ccc(Cl)cc3)nc12 [Compound 590] | 100 to 1000
9 | CCCCCn1c(N2C[C@H](F)C[C@H]2C(=O)NCCC(=O)OCC)cc(=O)n2cc(-c3ccc(Cl)cc3)nc12 [Compound 591] | 100 to 1000
10 | CCCCCn1c(N2C[C@@H](F)C[C@H]2C(=O)NCCC(=O)OCC)cc(=O)n2cc(-c3ccc(Cl)cc3)nc12 [Compound 592] | 10 to 100
11 | CCCCCn1c(N2C[C@H](O)C[C@H]2C(=O)NCCC(=O)OCC)cc(=O)n2cc(-c3ccc(Cl)cc3)nc12 [Compound 593] | 10 to 100
12 | CCCCCn1c(N2C[C@@H](O)C[C@H]2C(=O)NCCC(=O)OCC)cc(=O)n2cc(-c3ccc(Cl)cc3)nc12 [Compound 594] | 10 to 100
13 | CCCCCn1c(N2C[C@H](F)C[C@H]2C(=O)NC(C)(C)CC(=O)OCC)cc(=O)n2cc(-c3ccc(Cl)cc3)nc12 [Compound 595] | 100 to 1000
14 | CCCCCn1c(N2C[C@@H](F)C[C@H]2C(=O)NC(C)(C)CC(=O)OCC)cc(=O)n2cc(-c3ccc(Cl)cc3)nc12 [Compound 596] | 10 to 100
15 | CCCCCn1c(N2C[C@H](O)C[C@H]2C(=O)NC(C)(C)CC(=O)OCC)cc(=O)n2cc(-c3ccc(Cl)cc3)nc12 [Compound 597] | 10 to 100
16 | CCCCCn1c(N2C[C@@H](O)C[C@H]2C(=O)NC(C)(C)CC(=O)OCC)cc(=O)n2cc(-c3ccc(Cl)cc3)nc12 [Compound 598] | 10 to 100
17 | CCCCCn1c(N2CCC[C@H]2CC(=O)O)cc(=O)n2cc(-c3ccc(Cl)cc3)nc12 [Compound 599] | 10 to 100
18 | CCCCCn1c(N2CCC[C@H](C(=O)O)C2)cc(=O)n2cc(-c3ccc(Cl)cc3)nc12 [Compound 600] | < 10
19 | CCCCCn1c(NCCC(=O)O)cc(=O)n2cc(-c3ccc(Cl)cc3)nc12 [Compound 601] | 100 to 1000
20 | CCCCCn1c(N(C)CC(=O)O)cc(=O)n2cc(-c3ccc(Cl)cc3)nc12 [Compound 602] | 100 to 1000
21 | CCCCCn1c(NCC(=O)NCC(=O)O)cc(=O)n2cc(-c3ccc(Cl)cc3)nc12 [Compound 603] | 100 to 1000
22 | CCCCCn1c(N2CCCC[C@H]2C(=O)O)cc(=O)n2cc(-c3ccc(Cl)cc3)nc12 [Compound 604] | 100 to 1000
23 | CCCCCn1c(N2CCC[C@@H]2CC(=O)O)cc(=O)n2cc(-c3ccc(Cl)cc3)nc12 [Compound 605] | 100 to 1000

Row | Compound | IC50 [nM]
24 | CCCCCn1c(N2CCC[C@@]2(C)C(=O)O)cc(=O)n2cc(-c3ccc(Cl)cc3)nc12 [Compound 606] | > 1000
25 | CCCCCn1c(NCCCC(=O)O)cc(=O)n2cc(-c3ccc(Cl)cc3)nc12 [Compound 607] | 10 to 100
26 | CCCCCn1c(N2CCC[C@@H](C(=O)O)C2)cc(=O)n2cc(-c3ccc(Cl)cc3)nc12 [Compound 608] | 10 to 100
27 | CCCCCn1c(N(C)CC(=O)NCC(=O)O)cc(=O)n2cc(-c3ccc(Cl)cc3)nc12 [Compound 609] | 10 to 100
28 | CCCCCn1c(NC2(C(=O)O)CC2)cc(=O)n2cc(-c3ccc(Cl)cc3)nc12 [Compound 610] | > 1000
29 | CCCCCn1c(NCCCCC(=O)O)cc(=O)n2cc(-c3ccc(Cl)cc3)nc12 [Compound 611] | 10 to 100
30 | CCCCCn1c(N2CCCC[C@@H]2C(=O)O)cc(=O)n2cc(-c3ccc(Cl)cc3)nc12 [Compound 612] | 100 to 1000
31 | CCCCCn1c(N[C@@H]2CCC[C@H]2C(=O)O)cc(=O)n2cc(-c3ccc(Cl)cc3)nc12 [Compound 613] | 10 to 100
32 | CCCCCn1c(N2CCN(C(=O)OC(C)(C)C)C(C(=O)NCCC(=O)O)C2)cc(=O)n2cc(-c3ccc(Cl)cc3)nc12 (stereo not shown) [Compound 614] | 100 to 1000
33 | CCCCCn1c(N2CCC[C@H]2CC(=O)NCCC(=O)O)cc(=O)n2cc(-c3ccc(Cl)cc3)nc12 [Compound 615] | < 10
34 | CCCCCn1c(N2CCC[C@H](C(=O)NCCC(=O)O)C2)cc(=O)n2cc(-c3ccc(Cl)cc3)nc12 [Compound 616] | < 10
35 | CCCCCn1c(NCCC(=O)NCCC(=O)O)cc(=O)n2cc(-c3ccc(Cl)cc3)nc12 [Compound 617] | 100 to 1000
36 | CCCCCn1c(N(C)CC(=O)NCCC(=O)O)cc(=O)n2cc(-c3ccc(Cl)cc3)nc12 [Compound 618] | 10 to 100
37 | CCCCCn1c(N2CCN(C(=O)OC(C)(C)C)C[C@@H]2C(=O)NCCC(=O)O)cc(=O)n2cc(-c3ccc(Cl)cc3)nc12 [Compound 619] | 10 to 100
38 | CCCCCn1c(N2CCN(C(=O)OC(C)(C)C)C[C@H]2C(=O)NCCC(=O)O)cc(=O)n2cc(-c3ccc(Cl)cc3)nc12 [Compound 620] | < 10
39 | CCCCCn1c(N2CCCC[C@H]2C(=O)NCCC(=O)O)cc(=O)n2cc(-c3ccc(Cl)cc3)nc12 [Compound 621] | < 10
40 | CCCCCn1c(N2CCC[C@@H]2CC(=O)NCCC(=O)O)cc(=O)n2cc(-c3ccc(Cl)cc3)nc12 [Compound 622] | 100 to 1000
41 | CCCCCn1c(N2CCC[C@@]2(C)C(=O)NCCC(=O)O)cc(=O)n2cc(-c3ccc(Cl)cc3)nc12 [Compound 623] | 100 to 1000
42 | CCCCCn1c(N2CCC[C@@H](C(=O)NCCC(=O)O)C2)cc(=O)n2cc(-c3ccc(Cl)cc3)nc12 [Compound 624] | 10 to 100
43 | CCCCCn1c(NC2(C(=O)NCCC(=O)O)CC2)cc(=O)n2cc(-c3ccc(Cl)cc3)nc12 [Compound 625] | 100 to 1000
44 | CCCCCn1c(N2CCCC[C@@H]2C(=O)NCCC(=O)O)cc(=O)n2cc(-c3ccc(Cl)cc3)nc12 [Compound 626] | 10 to 100
45 | CCCCCn1c(N2CCN(C(=O)OC(C)(C)C)C(C(=O)NCC(=O)O)C2)cc(=O)n2cc(-c3ccc(Cl)cc3)nc12 (stereo not shown) [Compound 627] | 100 to 1000
46 | CCCCCn1c(N2CCC[C@H]2CC(=O)NCC(=O)O)cc(=O)n2cc(-c3ccc(Cl)cc3)nc12 [Compound 628] | < 10

Row | Compound | IC50 [nM]
47 | CCCCCn1c(N2CCC[C@H](C(=O)NCC(=O)O)C2)cc(=O)n2cc(-c3ccc(Cl)cc3)nc12 [Compound 629] | < 10
48 | CCCCCn1c(NCCC(=O)NCC(=O)O)cc(=O)n2cc(-c3ccc(Cl)cc3)nc12 [Compound 630] | 100 to 1000
49 | CCCCCn1c(N2CCN(C(=O)OC(C)(C)C)C[C@@H]2C(=O)NCC(=O)O)cc(=O)n2cc(-c3ccc(Cl)cc3)nc12 [Compound 631] | 100 to 1000
50 | CCCCCn1c(N2CCN(C(=O)OC(C)(C)C)C[C@H]2C(=O)NCC(=O)O)cc(=O)n2cc(-c3ccc(Cl)cc3)nc12 [Compound 632] | 10 to 100
51 | CCCCCn1c(N2CCCC[C@H]2C(=O)NCC(=O)O)cc(=O)n2cc(-c3ccc(Cl)cc3)nc12 [Compound 633] | 10 to 100
52 | CCCCCn1c(N2CCC[C@@H]2CC(=O)NCC(=O)O)cc(=O)n2cc(-c3ccc(Cl)cc3)nc12 [Compound 634] | 100 to 1000
53 | CCCCCn1c(N2CCC[C@@]2(C)C(=O)NCC(=O)O)cc(=O)n2cc(-c3ccc(Cl)cc3)nc12 [Compound 635] | > 1000
54 | CCCCCn1c(N2CCC[C@@H](C(=O)NCC(=O)O)C2)cc(=O)n2cc(-c3ccc(Cl)cc3)nc12 [Compound 636] | 10 to 100
55 | CCCCCn1c(NC2(C(=O)NCC(=O)O)CC2)cc(=O)n2cc(-c3ccc(Cl)cc3)nc12 [Compound 637] | > 1000
56 | CCCCCn1c(N2CCCC[C@@H]2C(=O)NCC(=O)O)cc(=O)n2cc(-c3ccc(Cl)cc3)nc12 [Compound 638] | 100 to 1000
57 | CCCCCn1c(N2CCN(C(=O)OC(C)(C)C)C(C(=O)O)C2)cc(=O)n2cc(-c3ccc(Cl)cc3)nc12 (stereo not shown) [Compound 639] | 100 to 1000
58 | CCCCCn1c(N2CCN(C(=O)OC(C)(C)C)C[C@@H]2C(=O)O)cc(=O)n2cc(-c3ccc(Cl)cc3)nc12 [Compound 640] | > 1000
59 | CCCCCn1c(N2CCN(C(=O)OC(C)(C)C)C[C@H]2C(=O)O)cc(=O)n2cc(-c3ccc(Cl)cc3)nc12 [Compound 641] | > 1000
60 | CCCCCn1c(N2CCC[C@H]2C(=O)NCCCN2CCCC2=O)cc(=O)n2cc(-c3ccc(Cl)cc3)nc12 [Compound 642] | 10 to 100
61 | CCCCCn1c(N2CCC[C@H]2C(=O)NCCN2CCCCC2)cc(=O)n2cc(-c3ccc(Cl)cc3)nc12 [Compound 643] | 100 to 1000
62 | CCCCCn1c(N2CCC[C@H]2C(=O)NCCN2CCOCC2)cc(=O)n2cc(-c3ccc(Cl)cc3)nc12 [Compound 644] | 100 to 1000
63 | CCCCCn1c(N2CCC[C@H]2C(=O)NCCN(C)C)cc(=O)n2cc(-c3ccc(Cl)cc3)nc12 [Compound 645] | 100 to 1000
64 | CCCCCn1c(N2CCC[C@H]2C(=O)NCCCN(C)C)cc(=O)n2cc(-c3ccc(Cl)cc3)nc12 [Compound 646] | > 1000
65 | CCCCCn1c(N2CCC[C@H]2C(=O)NCCN2CCCC2)cc(=O)n2cc(-c3ccc(Cl)cc3)nc12 [Compound 647] | > 1000
66 | CCCCCn1c(N2CCC[C@H]2C(=O)NCCCN2CCCC2)cc(=O)n2cc(-c3ccc(Cl)cc3)nc12 [Compound 648] | > 1000
67 | CCCCCn1c(N2CCC[C@H]2C(=O)NCCCN2CCN(C)CC2)cc(=O)n2cc(-c3ccc(Cl)cc3)nc12 [Compound 649] | 10 to 100
